Numbered stars: 1 amine (or outer) side, 2 acyl side, 3 side chain; on linkers, the order of the positions; unused ones are H or OH. Bridge positions count the residues as written; N and C are the ends. Square brackets hold non-standard residues; d marks the D form. Peptide text beside a SMILES is read from it. * marks the point of attachment. ξ: configuration not given here. Phe(4-COOH) = N[C@@H](Cc1ccc(C(=O)O)cc1)C(=O)O; Bip = N[C@@H](Cc1ccc(-c2ccccc2)cc1)C(=O)O; Phe(3-Me) = Cc1cccc(C[C@H](N)C(=O)O)c1; X8 = CC(C)(F)C(N[*:1])C(=O)[*:2]; Cha = N[C@@H](CC1CCCCC1)C(=O)O; Carboxymethyl = O=C(O)C*; Orn = NCCC[C@H](N)C(=O)O; Aun = NCCCCCCCCCCC(=O)O; Dab = NCC[C@H](N)C(=O)O; Dap = NC[C@H](N)C(=O)O; AEEA = NCCOCCOCC(=O)O; ξDab = NCCC(N)C(=O)O

T1 sequence (Q15116 25-288): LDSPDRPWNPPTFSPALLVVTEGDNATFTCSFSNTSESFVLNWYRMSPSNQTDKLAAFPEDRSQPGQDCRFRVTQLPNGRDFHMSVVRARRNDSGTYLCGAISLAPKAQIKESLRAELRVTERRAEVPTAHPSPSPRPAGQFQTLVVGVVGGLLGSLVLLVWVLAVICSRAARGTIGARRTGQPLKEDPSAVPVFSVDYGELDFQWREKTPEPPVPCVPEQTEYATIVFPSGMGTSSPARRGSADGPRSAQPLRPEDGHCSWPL

This experiment has as its target T1, PD-1/PD-L1 interaction (PE-labeled human PD-L1-Ig binding to Jurkat cell line over-expressing human PD-1) (Homo sapiens, UniProt Q15116).
T1 construct: expressed in transfected cells; host or cells: Jurkat
As to the kind of experiment: Jurkat-PD-1 Cell Binding High-Content Screening Assay (CBA). Format: cell-based. The conditions noted are these: Jurkat cell line over-expressing human PD-1; PE-labeled PD-L1-Ig 20 nM final; read-out: Jurkat hPD1-PDL1 IC50. Put shortly:
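Binding of fluorescent PD-L1-Ig (20 nM final) to Jurkat-PD-1 cells was measured by automated imaging after 1 h, following a 2 h compound pre-treatment at 37° C.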
Regarding `Cc1cccc(C[C@@H]2NC(=O)[C@H](CC(=O)O)NC(=O)[C@H](Cc3ccc(OCC(=O)O)cc3)NC(=O)[C@H](CCCNC(=N)N)NC(=O)CSC[C@@H](C(=O)N[C@@H](CCN)C(=O)NCCCCCCCCCCC(=O)O)NC(=O)[C@H]([C@@H](C)O)NC(=O)C(C(C)(C)F)NC(=O)[C@H](CC3CCCCC3)NC(=O)[C@H](CCN)NC(=O)[C@@H](CC(C)C)NC(=O)[C@H](CCCN)NC(=O)[C@H](Cc3ccc(OCC(=O)O)cc3)NC(=O)[C@H](Cc3ccc(-c4ccccc4)cc3)NC(=O)[C@H](Cc3ccc(O)cc3)NC2=O)c1` (stereo partly drawn) [Compound 2264] ({CH2CO}-RY(Carboxymethyl)D[Phe(3-Me)]Y[Bip]Y(Carboxymethyl)[Orn][dL][Dab][Cha][X8]TC[Dab][Aun]-OH; thioether N-14), the IC50 was found to be 13.1 nM.
Under `CC(C)C[C@H]1NC(=O)[C@H](CCCN)NC(=O)[C@H](Cc2ccc(O)cc2)NC(=O)[C@H](Cc2ccc(-c3ccccc3)cc2)NC(=O)[C@H](Cc2ccc(O)cc2)NC(=O)[C@H](Cc2c[nH]c3ccccc23)NC(=O)[C@H](CC(=O)O)NC(=O)[C@H](Cc2ccc(C(=O)O)cc2)NC(=O)[C@H](Cc2ccc(OCC(=O)O)cc2)NC(=O)CSC[C@@H](C(=O)N[C@@H](CCN)C(=O)NCCOCCOCC(=O)NCCCCCCCCCCC(=O)O)NC(=O)[C@H](CCCCN)NC(=O)[C@H](Cc2ccc(O)cc2)NC(=O)[C@H](CC2CCCCC2)NC(=O)[C@H](CCN)NC1=O` [Compound 2501] ({CH2CO}-Y(Carboxymethyl)[Phe(4-COOH)]DWY[Bip]Y[Orn][dL][Dab][Cha]YKC[Dab][AEEA][Aun]-OH; thioether N-14) stands 28.4 nM; under `CC(C)C[C@H]1NC(=O)[C@H](CCCN)NC(=O)[C@H](Cc2ccc(O)cc2)NC(=O)[C@H](Cc2ccc(-c3ccccc3)cc2)NC(=O)[C@H](Cc2ccc(O)cc2)NC(=O)[C@H](Cc2c[nH]c3ccccc23)NC(=O)[C@H](CC(=O)O)NC(=O)[C@H](Cc2ccc(OCC(=O)O)cc2)NC(=O)[C@H](Cc2ccc(OCC(=O)O)cc2)NC(=O)CSC[C@@H](C(=O)N[C@@H](CCN)C(=O)NCCOCCOCC(=O)NCCCCCCCCCCC(=O)O)NC(=O)[C@H](CCCNC(=N)N)NC(=O)[C@H](Cc2ccc(O)cc2)NC(=O)[C@H](CC2CCCCC2)NC(=O)[C@H](CCN)NC1=O` [Compound 2502] ({CH2CO}-Y(Carboxymethyl)Y(Carboxymethyl)DWY[Bip]Y[Orn][dL][Dab][Cha]YRC[Dab][AEEA][Aun]-OH; thioether N-14), 21.2 nM.
Take `CC(C)C[C@H]1NC(=O)[C@H](CCCN)NC(=O)[C@H](Cc2ccc(O)cc2)NC(=O)[C@H](Cc2ccc(-c3ccccc3)cc2)NC(=O)[C@H](Cc2ccc(O)cc2)NC(=O)[C@H](Cc2c[nH]c3ccccc23)NC(=O)[C@H](CC(=O)O)NC(=O)[C@H](Cc2ccc(OCC(=O)O)cc2)NC(=O)[C@H](CN)NC(=O)CSC[C@@H](C(=O)N[C@@H](CCN)C(=O)NCCOCCOCC(=O)NCCCCCCCCCCC(=O)O)NC(=O)[C@H](CCCCN)NC(=O)[C@H](Cc2ccc(O)cc2)NC(=O)[C@H](CC2CCCCC2)NC(=O)[C@H](CCN)NC1=O` [Compound 2503] ({CH2CO}-[Dap]Y(Carboxymethyl)DWY[Bip]Y[Orn][dL][Dab][Cha]YKC[Dab][AEEA][Aun]-OH; thioether N-14): the IC50 came to 39.9 nM.
As for `Cc1cccc(C[C@@H]2NC(=O)[C@H](CC(=O)O)NC(=O)[C@H](Cc3ccc(OCC(=O)O)cc3)NC(=O)[C@H](CN)NC(=O)CSC[C@@H](C(=O)N[C@@H](CCN)C(=O)NCCOCCOCC(=O)NCCCCCCCCCCC(=O)O)NC(=O)[C@H](CN)NC(=O)[C@H](Cc3ccc(O)cc3)NC(=O)[C@H](CC3CCCCC3)NC(=O)[C@H](CCN)NC(=O)[C@@H](CC(C)C)NC(=O)[C@H](CCCN)NC(=O)[C@H](Cc3ccc(O)cc3)NC(=O)[C@H](Cc3ccc(-c4ccccc4)cc3)NC(=O)[C@H](Cc3ccc(O)cc3)NC2=O)c1` [Compound 2504] ({CH2CO}-[Dap]Y(Carboxymethyl)D[Phe(3-Me)]Y[Bip]Y[Orn][dL][Dab][Cha]Y[Dap]C[Dab][AEEA][Aun]-OH; thioether N-14), the IC50 is 37.4 nM.
The figure for `Cc1cccc(C[C@@H]2NC(=O)[C@H](CC(=O)O)NC(=O)[C@H](Cc3ccc(OCC(=O)O)cc3)NC(=O)[C@H](CN)NC(=O)CSC[C@@H](C(=O)N[C@@H](CCN)C(=O)NCCOCCOCC(=O)NCCCCCCCCCCC(=O)O)NC(=O)[C@H](CCCN)NC(=O)[C@H](Cc3ccc(O)cc3)NC(=O)[C@H](CC3CCCCC3)NC(=O)[C@H](CCN)NC(=O)[C@@H](CC(C)C)NC(=O)[C@H](CCCN)NC(=O)[C@H](Cc3ccc(O)cc3)NC(=O)[C@H](Cc3ccc(-c4ccccc4)cc3)NC(=O)[C@H](Cc3ccc(O)cc3)NC2=O)c1` [Compound 2505] ({CH2CO}-[Dap]Y(Carboxymethyl)D[Phe(3-Me)]Y[Bip]Y[Orn][dL][Dab][Cha]Y[Orn]C[Dab][AEEA][Aun]-OH; thioether N-14) is 20.9 nM.
For the compound `Cc1cccc(C[C@@H]2NC(=O)[C@H](CC(=O)O)NC(=O)[C@H](Cc3ccc(OCC(=O)O)cc3)NC(=O)[C@H](CN)NC(=O)CSC[C@@H](C(=O)N[C@@H](CCN)C(=O)NCCOCCOCC(=O)NCCCCCCCCCCC(=O)O)NC(=O)[C@H](CCCNC(=N)N)NC(=O)[C@H](Cc3ccc(O)cc3)NC(=O)[C@H](CC3CCCCC3)NC(=O)[C@H](CCN)NC(=O)[C@@H](CC(C)C)NC(=O)[C@H](CCCN)NC(=O)[C@H](Cc3ccc(O)cc3)NC(=O)[C@H](Cc3ccc(-c4ccccc4)cc3)NC(=O)[C@H](Cc3ccc(O)cc3)NC2=O)c1` [Compound 2506] ({CH2CO}-[Dap]Y(Carboxymethyl)D[Phe(3-Me)]Y[Bip]Y[Orn][dL][Dab][Cha]YRC[Dab][AEEA][Aun]-OH; thioether N-14), the IC50 came out at 32.4 nM.
Consider `CC(C)C[C@H]1NC(=O)[C@H](CCCN)NC(=O)[C@H](Cc2ccc(O)cc2)NC(=O)[C@H](Cc2ccc(-c3ccccc3)cc2)NC(=O)[C@H](Cc2ccc(O)cc2)NC(=O)[C@H](Cc2c[nH]c3ccccc23)NC(=O)[C@H](CC(=O)O)NC(=O)[C@H](Cc2ccc(C(=O)O)cc2)NC(=O)[C@H](Cc2ccc(OCC(=O)O)cc2)NC(=O)CSC[C@@H](C(=O)N[C@@H](CCN)C(=O)NCCCCCCCCCCC(=O)O)NC(=O)[C@H](CCCCN)NC(=O)[C@H](Cc2ccc(O)cc2)NC(=O)[C@H](CC2CCCCC2)NC(=O)[C@H](CCN)NC1=O` [Compound 2507] ({CH2CO}-Y(Carboxymethyl)[Phe(4-COOH)]DWY[Bip]Y[Orn][dL][Dab][Cha]YKC[Dab][Aun]-OH; thioether N-14), for which the IC50 came to 72.1 nM.
The figure for `CC(C)C[C@H]1NC(=O)[C@H](CCCN)NC(=O)[C@H](Cc2ccc(O)cc2)NC(=O)[C@H](Cc2ccc(-c3ccccc3)cc2)NC(=O)[C@H](Cc2ccc(O)cc2)NC(=O)[C@H](Cc2c[nH]c3ccccc23)NC(=O)[C@H](CC(=O)O)NC(=O)[C@H](Cc2ccc(OCC(=O)O)cc2)NC(=O)[C@H](Cc2ccc(OCC(=O)O)cc2)NC(=O)CSC[C@@H](C(=O)NC(CCN)C(=O)NCCCCCCCCCCC(=O)O)NC(=O)[C@H](CCCNC(=N)N)NC(=O)[C@H](Cc2ccc(O)cc2)NC(=O)[C@H](CC2CCCCC2)NC(=O)[C@H](CCN)NC1=O` (stereo partly drawn) [Compound 2508] ({CH2CO}-Y(Carboxymethyl)Y(Carboxymethyl)DWY[Bip]Y[Orn][dL][Dab][Cha]YRC[ξDab][Aun]-OH; thioether N-14) is 132 nM.
Under `CC(C)C[C@H]1NC(=O)[C@H](CCCN)NC(=O)[C@H](Cc2ccc(O)cc2)NC(=O)[C@H](Cc2ccc(-c3ccccc3)cc2)NC(=O)[C@H](Cc2ccc(O)cc2)NC(=O)[C@H](Cc2c[nH]c3ccccc23)NC(=O)[C@H](CC(=O)O)NC(=O)[C@H](Cc2ccc(OCC(=O)O)cc2)NC(=O)[C@H](CN)NC(=O)CSC[C@@H](C(=O)N[C@@H](CCN)C(=O)NCCCCCCCCCCC(=O)O)NC(=O)[C@H](CCCCN)NC(=O)[C@H](Cc2ccc(O)cc2)NC(=O)[C@H](CC2CCCCC2)NC(=O)[C@H](CCN)NC1=O` [Compound 2509] ({CH2CO}-[Dap]Y(Carboxymethyl)DWY[Bip]Y[Orn][dL][Dab][Cha]YKC[Dab][Aun]-OH; thioether N-14) stands 59.8 nM.
As for `Cc1cccc(C[C@@H]2NC(=O)[C@H](CC(=O)O)NC(=O)[C@H](Cc3ccc(OCC(=O)O)cc3)NC(=O)[C@H](CN)NC(=O)CSC[C@@H](C(=O)N[C@@H](CCN)C(=O)NCCCCCCCCCCC(=O)O)NC(=O)[C@H](CN)NC(=O)[C@H](Cc3ccc(O)cc3)NC(=O)[C@H](CC3CCCCC3)NC(=O)[C@H](CCN)NC(=O)[C@@H](CC(C)C)NC(=O)[C@H](CCCN)NC(=O)[C@H](Cc3ccc(O)cc3)NC(=O)[C@H](Cc3ccc(-c4ccccc4)cc3)NC(=O)[C@H](Cc3ccc(O)cc3)NC2=O)c1` [Compound 2510] ({CH2CO}-[Dap]Y(Carboxymethyl)D[Phe(3-Me)]Y[Bip]Y[Orn][dL][Dab][Cha]Y[Dap]C[Dab][Aun]-OH; thioether N-14), the IC50 came out at 65 nM.
Regarding `Cc1cccc(C[C@@H]2NC(=O)[C@H](CC(=O)O)NC(=O)[C@H](Cc3ccc(OCC(=O)O)cc3)NC(=O)[C@H](CN)NC(=O)CSC[C@@H](C(=O)N[C@@H](CCN)C(=O)NCCCCCCCCCCC(=O)O)NC(=O)[C@H](CCCN)NC(=O)[C@H](Cc3ccc(O)cc3)NC(=O)[C@H](CC3CCCCC3)NC(=O)[C@H](CCN)NC(=O)[C@@H](CC(C)C)NC(=O)[C@H](CCCN)NC(=O)[C@H](Cc3ccc(O)cc3)NC(=O)[C@H](Cc3ccc(-c4ccccc4)cc3)NC(=O)[C@H](Cc3ccc(O)cc3)NC2=O)c1` [Compound 2511] ({CH2CO}-[Dap]Y(Carboxymethyl)D[Phe(3-Me)]Y[Bip]Y[Orn][dL][Dab][Cha]Y[Orn]C[Dab][Aun]-OH; thioether N-14), the IC50 is 50.1 nM.

The values above are taken from patent publication US20260022142A1, “MACROCYCLIC IMMUNOMODULATORS” (Bristol-Myers Squibb Company, priority 2022, published 2026).
